Entries after “also recorded” stand apart in the source; their conditions may differ.
Columns and labels:
Format in all cases: cell-based, Pseudomonas aeruginosa
[1] = system: P. aeruginosa cells; conditions: 3 mM 2AA
[2] = system: pqsA-LacZ (MvfR-dependent pqs operon transcription); experiment: pqsA-LacZ expression (β-galactosidase activity)
Protocol: To assess the effect of this compound on bacteria, we analyzed the production of HAQs in the presence of 2AA using LC/MS. The bacteria were propagated in the presence of 3 mM 2AA, culture media was collected at different time points, and the HHQ, PQS and HQNO production was measured in the supernatant. […] Since 2AA addition to the P. aeruginosa culture inhibits the production of HHQ and PQS, we assessed the transcription from the pqs operon using a pqsA-LacZ fusion.
To further, understand the mechanism of inhibition of the pqs operon by 2AA, we carried out competition assays of PQS and HHQ with 2AA. The expression of pqsA-LacZ in pqsApqsH double mutants was assessed. Bacteria were grown to an OD600 of 1.0 and HHQ and PQS were added either alone or with 2AA. LacZ expression was assayed at different stages of the growth, using standard protocols.
To determine whether HHQ activates MvfR expression, we generated a PA14pqsH/pqsA double mutant that lacks all HAQ production, and assessed pqsA-lacZ activity in the absence and presence of HHQ and PQS.

[3] = system: 4-hydroxy-2-alkylquinoline (HAQ) production
[4] = probable ATP-binding component of ABC transporter

CC(=O)c1ccccc1N [2AA, 2′-aminoacetophenone]
genes whose expression was altered more than 2 fold ([1]; harvested at OD600 of 3.0): approximately 1250 genes | genes downregulated ([1]; more than 2 fold): 1056 genes | genes upregulated ([1]; more than 2 fold): 199 genes | FOLD CHANGE PA3569 ([1]; 3-hydroxyisobutyrate dehydrogenase mmsB): −2.6 fold | FOLD CHANGE PA0999 ([1]; 3-oxoacyl-[acyl-carrier-protein] synthase III pqsD): −5.2 fold | FOLD CHANGE PA2570 ([1]; PA-I galactophilic lectin): −4.5 fold | FOLD CHANGE PA1001 ([1]; anthranilate synthase component I, phnA): −6.2 fold | FOLD CHANGE PA1002 ([1]; anthranilate synthase component II, phnB): −4.9 fold | FOLD CHANGE PA0905 ([1]; carbon storage regulator csrA): −2.7 fold | FOLD CHANGE PA1457 ([1]; chemotaxis protein CheZ): −2.1 fold | FOLD CHANGE PA2300 ([1]; chitinase): −3.2 fold | FOLD CHANGE PA0122 ([1]; conserved hypothetical protein): −3.4 fold | FOLD CHANGE PA0567 ([1]; conserved hypothetical protein): −3.0 fold | FOLD CHANGE PA1914 ([1]; conserved hypothetical protein): −26.3 fold | FOLD CHANGE PA2754 ([1]; conserved hypothetical protein): −2.0 fold | FOLD CHANGE PA4739 ([1]; conserved hypothetical protein): −3.7 fold | FOLD CHANGE PA3105 ([1]; general secretion pathway protein D): −2.2 fold | FOLD CHANGE PA3101 ([1]; general secretion pathway protein G): −3.4 fold | FOLD CHANGE PA3100 ([1]; general secretion pathway protein H): −2.1 fold | FOLD CHANGE PA3099 ([1]; general secretion pathway protein I): −2.2 fold | FOLD CHANGE PA3098 ([1]; general secretion pathway protein J): −2.2 fold | FOLD CHANGE PA3096 ([1]; general secretion pathway protein L): −2.8 fold | FOLD CHANGE PA3195 ([1]; glyceraldehyde 3-phosphate dehydrogenase): −3.2 fold | FOLD CHANGE PA3126 ([1]; heat-shock protein IbpA): −2.5 fold | FOLD CHANGE PA2194 ([1]; hydrogen cyanide synthase HcnB): −3.5 fold | FOLD CHANGE PA2195 ([1]; hydrogen cyanide synthase HcnC): −2.9 fold | FOLD CHANGE PA4205 ([1]; hypothetical protein MexG): −6.1 fold | FOLD CHANGE PA0997 ([1]; hypothetical protein pqsB): −4.6 fold | FOLD CHANGE PA0998 ([1]; hypothetical protein pqsC): −5.4 fold | FOLD CHANGE PA1000 ([1]; hypothetical protein pqsE): −4.3 fold | FOLD CHANGE PA1216 ([1]; hypothetical protein): −2.7 fold | FOLD CHANGE PA1852 ([1]; hypothetical protein): −2.3 fold | FOLD CHANGE PA2031 ([1]; hypothetical protein): −2.0 fold | FOLD CHANGE PA2134 ([1]; hypothetical protein): −2.5 fold | FOLD CHANGE PA2172 ([1]; hypothetical protein): −2.4 fold | FOLD CHANGE PA2173 ([1]; hypothetical protein): −2.3 fold | FOLD CHANGE PA2274 ([1]; hypothetical protein): −3.7 fold | FOLD CHANGE PA2328 ([1]; hypothetical protein): −4.5 fold | FOLD CHANGE PA2330 ([1]; hypothetical protein): −11.7 fold | FOLD CHANGE PA2331 ([1]; hypothetical protein): −10.9 fold | FOLD CHANGE PA2486 ([1]; hypothetical protein): −2.3 fold | FOLD CHANGE PA3031 ([1]; hypothetical protein): −3.1 fold | FOLD CHANGE PA3370 ([1]; hypothetical protein): −2.2 fold | FOLD CHANGE PA3371 ([1]; hypothetical protein): −2.1 fold | FOLD CHANGE PA3691 ([1]; hypothetical protein): −7.0 fold | FOLD CHANGE PA4917 ([1]; hypothetical protein): −2.1 fold | FOLD CHANGE PA3570 ([1]; methylmalonate-semialdehyde dehydrogenase): −2.9 fold | FOLD CHANGE PA4876 ([1]; osmotically inducible lipoprotein OsmE): −2.6 fold | FOLD CHANGE PA3186 ([1]; outer membrane porin OprB precursor): −2.2 fold | FOLD CHANGE PA1901 ([1]; phenazine biosynthesis protein PhzC): −3.4 fold | FOLD CHANGE PA1902 ([1]; phenazine biosynthesis protein PhzD): −3.4 fold | FOLD CHANGE PA1903 ([1]; phenazine biosynthesis protein PhzE): −3.1 fold | FOLD CHANGE PA2329 [1, 4]: −9.8 fold | FOLD CHANGE PA3187 [1, 4]: −2.6 fold | FOLD CHANGE PA4217 ([1]; probable FAD-dependent monooxygenase phzS1): −5.4 fold | FOLD CHANGE PA4209 ([1]; probable O-methyltransferase phzM): −2.4 fold | FOLD CHANGE PA4206 ([1]; probable RND efflux membrane fusion protein precursor mexH): −5.9 fold | FOLD CHANGE PA4207 ([1]; probable RND efflux transporter mexI): −7.5 fold | FOLD CHANGE PA2069 ([1]; probable carbamoyl transferase): −2.5 fold | FOLD CHANGE PA0996 ([1]; probable coenzyme A ligase pqsA): −3.0 fold | FOLD CHANGE PA2204 ([1]; probable component of ABC transporter): −3.1 fold | FOLD CHANGE PA2067 ([1]; probable hydrolase): −2.5 fold | FOLD CHANGE PA3812 ([1]; probable iron-binding protein IscA): −5.9 fold | FOLD CHANGE PA3813 ([1]; probable iron-binding protein IscU): −6.7 fold | FOLD CHANGE PA4208 ([1]; probable outer membrane efflux protein precursor, OpmD): −6.8 fold | FOLD CHANGE PA3692 ([1]; probable outer membrane protein): −4.7 fold | FOLD CHANGE PA3189 ([1]; probable permease of ABC sugar transporter): −2.0 fold | FOLD CHANGE PA2327 ([1]; probable permease of ABC transporter): −4.9 fold | FOLD CHANGE PA4210 ([1]; probable phenazine biosynthesis protein phzA1): −3.3 fold | FOLD CHANGE PA4211 ([1]; probable phenazine biosynthesis protein phzB1): −2.9 fold | FOLD CHANGE PA1904 ([1]; probable phenazine biosynthesis protein): −3.6 fold | FOLD CHANGE PA1905 ([1]; probable pyridoxamine 5′-phosphate oxidase): −3.4 fold | FOLD CHANGE PA4218 ([1]; probable transporter): −5.3 fold | FOLD CHANGE PA0355 ([1]; protease pfpI): −2.7 fold | FOLD CHANGE PA1456 ([1]; two-component response regulator CheY): −2.3 fold | LacZ expression from pqsA-LacZ fusion ([2]; PA14, 3 mM 2AA (FIG. 14)): significant reduction | pqsA expression (pqsA-LacZ) in response to HHQ ([2]; pqsApqsH double mutant, 3 mM 2AA with 1 mg/L HHQ): blocks pqsA expression | pqsA expression (pqsA-LacZ) in response to PQS ([2]; pqsApqsH double mutant, 3 mM 2AA with 10 μl PQS): blocks pqsA expression; also recorded: inhibits pqsA expression at later time points | HHQ production [3]: no HHQ was produced | HQNO accumulation [3]: higher accumulation of HQNO | PQS production [3]: only a limited quantity of PQS was produced | production of 3,4-dihydroxy-2-heptylquinoline (PQS) [3]: decreased | production of 4-hydroxy-2-heptylquinoline (HHQ) [3]: decreased | production of 4-hydroxy-2-heptylquinoline N-oxide (HQNO) [3]: enhanced
